Literature values as cited in US20050171207A1, “Method and composition for combination treatment of neurodegenerative disorders” (Myriad Genetics, Incorporated, priority 2003, published 2005).
Read-outs that look alike come from different tables or passages of the source.

Key:
[1] = test system: mild-to-moderate AD; details: rofecoxib at 25 mg daily; naproxen in the same trial
[2] = test system: Aβ42; details: transgenic mouse model
[3] = test system: COX
[4] = test system: Aβ42; details: CHO cells
[5] = test system: pain related chemo-somatosensory evoked potentials; details: 50 mg and 100 mg doses, human subjects
[6] = test system: mild-to-moderate AD; details: in vivo
[7] = test system: Alzheimer's disease excitotoxic model; details: in vivo Alzheimer's disease excitotoxic model system

COc1ccc2cc([C@H](C)C(=O)O)ccc2c1 [Naproxen]
efficacy for treating AD [1]: failed to show efficacy

C[C@@H](C(=O)O)c1ccc(-c2ccccc2)c(F)c1 [R-flurbiprofen]
Aβ42 lowering [2]: lower Aβ42
inhibition of COX activity [3]: negligibly inhibits COX activity
Aβ42 lowering [4]: lower Aβ42
analgesic effect [5]: produced an analgesic effect

CC12CC3CC(C)(C1)CC(N)(C3)C2 [memantine]
efficacy in treating mild-to-moderate AD [6]: showed efficacy

CS(=O)(=O)c1ccc(C2=C(c3ccccc3)C(=O)OC2)cc1 [rofecoxib]
efficacy for treating AD [1]: failed to show efficacy
neuroprotection [7]: provides neuroprotection
